Patent publication US9901615B2, “Method for treatment of gastric ulcers” (priority 2015, dated 2018)
Where no end group is shown, it is not given here.

Legend:
[1] = test system: H. pylori; test: Transmission electron microscopy (TP4); assay type: cell-based, Helicobacter pylori; details: 2 h post exposure
Method: Transmission electron microscopy (TEM) was used to examine the TP4 mechanism of action on H. pylori, overall cell morphology, TP4 translocation into H. pylori, and interaction of TP4 with internal targets. H. pylori overnight cultures from BHI-blood agar plates were collected, and 0.1 OD inocula were incubated with TP4, Amoxicillin, and/or PBS (PBS only: negative control). […] The cells were then fixed and processed for TEM using previously described methods, with some modifications. Briefly, cells were dehydrated in a graduated series of ethanol, followed by resin polymerization at 65° C. for 3 days. An EM ultramicrotome was used to slice thin sections of 70- to 80-nm thickness from the polymerized blocks, which were then loaded on 400-mesh copper grids. The sections were post stained with 2% uranyl acetate for 15 min and then lead citrate for 5 min, before being mounted for observation using an FEI Tecnai G2 F20 S-TWIN transmission electron microscope (FEI Company, Hillsboro, Oreg.) operating at 80 keV. […] Each grid was scrutinized with the same settings. Images were recorded with a 4MP SPOT Insight charge-coupled-device (CCD) camera.

[2] = test system: resistant clinical isolate CI-HC-028; test: Time-based susceptibility of resistant isolate to TP4 and antibiotics; assay type: cell-based, Helicobacter pylori; details: CI-HC-028, at MIC
Method: (§1) TP4 peptide solutions (100 μl) at concentrations corresponding to ¼, ½, 1, 2, and 4 fold the MIC were prepared and added to an equal volume of solution containing H. pylori counts of approximately 10^7 CFU mL-1 onto a microtitre plate. The plates were incubated at 37° C., and samples were collected at 1, 3, 6, 12, and 24 h and plated with appropriate dilutions onto blood agar plates; bacterial counts were enumerated and expressed as mean log (CFU mL-1) with standard error.
The bactericidal activities of TP4 and conventional antibiotics against resistant clinical isolate CI-HC-028 were compared. Certain resistant strains of H. pylori was previously reported to be resistant to metronidazole and clarithromycin 27. […] Thus, there is no correlation between multidrug resistant (MDR) phenotype and vulnerability to TP4.

[3] = test system: H. pylori; test: Development of drug resistance on passage at sub-inhibitory doses; assay type: cell-based, Helicobacter pylori; details: passages at sub-inhibitory doses in vitro
From the text: A major driver of drug resistance development is inappropriate antibiotic use and poor compliance with therapeutic regimens. 28 Here, we established a model for simulating conditions of drug resistance emergence: bacteria were exposed to sub-inhibitory doses of antibiotics (AMOX, CLRN, METZ), or peptide TP4 in vitro (see supplementary material methods).

[4] = test system: H. pylori; test: Transmission electron microscopy (Epi-1); assay type: cell-based, Helicobacter pylori
Method: Transmission electron microscopy was used to examine Epi-1 induced morphological changes of H. pylori. The samples were fixed and processed as previously described. All samples were examined with an FEI Tecnai G2 F20 S-TWIN transmission electron microscope (FEI Company, Hillsboro, Oreg.) operating at an accelerating voltage of 80 kV. Images were recorded with a charge-coupled device camera at various magnifications.

[5] = test system: H. pylori clinical isolate CI-HC-028; test: Anti-H. pylori assessment in vitro (MIC), Example 2; assay type: cell-based, Helicobacter pylori; details: NE: No effect
Method: (§2) H. pylori cells undergoing exponential growth were suspended in sterile phosphate-buffered saline (PBS), and adjusted to 0.05 OD using BHI broth; the inoculum was dispensed onto a microtitre plate. Peptide TP4 was prepared at various concentrations (0.04 to 50 μg mL-1) using PBS. Antibiotic resistant clinical isolate CI-HC-028 and three reference strains were used for susceptibility testing. The MIC was defined as the lowest concentration of the drug at which there was no visible growth. For quality control and comparative analyses, the susceptibility of all four H. pylori strains to the antibiotics amoxicillin, clarithromycin, and metronidazole were also examined.

[6] = test system: H. pylori; test: Dose and time-dependent killing by TP4; assay type: cell-based, Helicobacter pylori; details: at 2×MIC
Method: as §1

[7] = test system: H. pylori ATCC 43629; assay type: cell-based, Helicobacter pylori
Method: as §2

[8] = test system: H. pylori ATCC 43504; assay type: cell-based, Helicobacter pylori
Method: as §2

[9] = test system: H. pylori ATCC 700392; assay type: cell-based, Helicobacter pylori
Method: as §2

[10] = 2.5 mg applied to skin, daily for 7 days, Balb/c mice
Method: Dermal toxicity was assessed in Balb/c mice, through administering daily doses of Epi-1 (2.5 mg/animal) for 7 days [40, 41]. Animals were kept under observation for a minimum of 48 h. Skin abnormalities were recorded.

[11] = Sub-acute oral toxicity of Epi-1; assay type: in vivo, mice
Method: Sub-acute oral toxicity was assessed with over a test period of 14 days in which mice were given 600 μg/mouse/day. During the study period, animals were observed daily for clinical signs and mortality.

[12] = Acute oral toxicity of Epi-1; assay type: in vivo; details: 125 mg/kg, mice
Method: Acute oral toxicity was assessed in mice with 6 animals per group, by single oral administration of Epi-1 at 125 mg/kg body weight. Animals were placed under observation for about 48 hr. The mortality, morbidity rate, and clinical signs were recorded.

[13] = Eye irritation test of Epi-1 in rabbits; details: for Reversibility: 7 days then recovery
Method: This study used healthy young adults of the New Zealand white albino rabbit breed. […] The eyes were examined on days 1, 3, 5, and 7, and then allowed to recover until day 14; at this time, clinical observation scores were recorded, and grades assigned for ocular reactions observed during each examination.

[14] = Acute oral toxicity of TP4; set-up: species or system C3H/HeN mice; details: single oral dose, 10-fold the in vivo therapeutic dose, 24 hours
Method: (§3) Acute toxicity was assessed in C3H/HeN mice with 6 animals per group, by single oral administration of TP4 (125 mg/kg). […] Subacute toxicity: animals were administered with TP4 (600 μg dose/day) for 14 days. During dose administration, the animals were observed every day for any signs of toxicity for 28 days test period. The morbidity, mortality, and other clinical signs were recorded and assessed.

[15] = Sub-acute oral toxicity of TP4; assay type: in vivo, C3H/HeN mice; details: 3-fold therapeutic doses orally for 14 days, observed days 1 to 28
Method: as §3

[16] = Dermal toxicity of TP4; assay type: in vivo, C3H/HeN mice; details: for appearance of the skin: mice, 48 h post-exposure, 125 mg/kg TP4 or 20% SDS (FIG. 17B)
Method: TP4 (125 mg/kg) was applied onto the mouse skin (topical).

[17] = Eye irritation test of TP4 in New Zealand White rabbits; assay type: in vivo; details: for ocular appearance: rabbits treated with 50 mg/kg TP4 or SDS for 7 days, observed daily (FIG. 17A); for Abnormality iris, grading / Chemosis, grading / Conjunctivae redness, grading / Corneal opacity, grading: rabbits, OECD 405 grading
Method: Healthy young adults rabbit eyes were treated with TP4, PBS (vehicle control), or 0.1% SDS (positive control). […] […] Clinical signs were recorded during the test period, and grades were assigned for ocular reactions during examination.

Compound: CC1(C)S[C@@H]2[C@H](NC(=O)[C@H](N)c3ccc(O)cc3)C(=O)N2[C@H]1C(=O)O [amoxicillin]
- ultrastructure of H. pylori cells (TEM) [1]: appeared as ‘ghost’ cells, with loose outer membranes
- killing ([2]; within 24 hr): 90%
- drug resistance index (MICp/MICs) [3]: increased slightly after passage 6, and remained constant thereafter
- morphology of H. pylori cells (TEM) [4]: low percentage of coccoid morphology

Compound: FIHHIIGGLFSAGKAIHRLIRRRRR [TP4, Nile tilapia piscidin 4] [listing 1 of 2 here]
- MIC [5]: 1.5 to 3 µg/mL
- dose dependent effect against H. pylori (killing) [6]: 99.99%
- MIC [7]: 1.5 to 3 µg/mL
- MIC [8]: 1.5 to 3 µg/mL
- MIC [9]: 1.5 to 3 µg/mL

Compound: CC[C@H]1OC(=O)[C@H](C)[C@@H](O[C@H]2C[C@@](C)(OC)[C@@H](O)[C@H](C)O2)[C@H](C)[C@@H](O[C@@H]2O[C@H](C)C[C@H](N(C)C)[C@H]2O)[C@](C)(OC)C[C@@H](C)C(=O)[C@H](C)[C@@H](O)[C@]1(C)O [clarithromycin]
- time taken to 90% reduction [2]: > 24 h
- drug resistance index (MICp/MICs) [3]: gradually increased from passage 3 to the last passage

Compound: GFIFHIIKGLFHAGKMIHGLV-NH2 [Epi-1, Epinecidin-1]
- dermal irritation, lesions, clinical signs [10]: did not cause any irritation, lesions, or clinical signs
- whole blood biochemistry (GOT, GPT, BUN, CRE, TBIL, UA) ([11]; after acute and sub-acute oral administration): no significant changes
- clinical abnormalities, morbidity, death ([11]; sub-acute oral, 600 μg/mice): did not induce any clinical abnormalities, morbidity, or death
- clinical abnormalities, morbidity, death [12]: did not induce any clinical abnormalities, morbidity, or death
- ocular signs ([13]; days 2 and 3, 1 mg/eye/day): signs of lacrimation
- Corneal opacity, Grade ([13]; rabbit eye, 7 days): 0
- Iris lesion, Grade ([13]; rabbit eye, 7 days): 0
- Redness of conjunctivae, Grade ([13]; rabbit eye, 7 days): 0.1
- Reversibility ([13]; rabbit eye): yes

Compound: FIHHIIGGLFSAGKAIHRLIRRRRR [TP4, Nile tilapia piscidin 4] [listing 2 of 2 here]
- clinical signs, acute oral toxicity [14]: did not exhibit any abnormal clinical signs
- clinical complications, sub-acute oral toxicity [15]: did not induce clinical complications
- dermal toxicity ([16]; dermal exposure, 14 days observation period): No mortality or damaging effects were observed
- appearance of the skin [16]: no obvious lesions were observed
- ocular appearance [17]: no ocular lesions were detected
- Abnormality iris, grading ([17]; Day 1): 0
- Chemosis, grading ([17]; Day 1): 0
- Conjunctivae redness, grading ([17]; Day 1): 0
- Corneal opacity, grading ([17]; Day 1): 0
- Abnormality iris, grading ([17]; Day 3): 0
- Chemosis, grading ([17]; Day 3): 0.1
- Conjunctivae redness, grading ([17]; Day 3): 0
- Corneal opacity, grading ([17]; Day 3): 0
- Abnormality iris, grading ([17]; Day 5): 0
- Chemosis, grading ([17]; Day 5): 0.1
- Conjunctivae redness, grading ([17]; Day 5): 0.1
- Corneal opacity, grading ([17]; Day 5): 0.1
- Abnormality iris, grading ([17]; Day 7): 0
- Chemosis, grading ([17]; Day 7): 0.1
- Conjunctivae redness, grading ([17]; Day 7): 0
- Corneal opacity, grading ([17]; Day 7): 0.1
- Abnormality iris, grading ([17]; Recovery, Day 14): 0
- Chemosis, grading ([17]; Recovery, Day 14): 0
- Conjunctivae redness, grading ([17]; Recovery, Day 14): 0
- Corneal opacity, grading ([17]; Recovery, Day 14): 0

Compound: CCCCCCCCCCCCOS(=O)(=O)[O-].[Na+] [SDS, reference compound]
- appearance of the skin [16]: no obvious lesions were observed
- ocular appearance [17]: severe lacrimation, swelling of the eyelids, and elevated blood vessels in conjunctivae
- Abnormality iris, grading ([17]; Day 1): 0
- Chemosis, grading ([17]; Day 1): 1.5
- Conjunctivae redness, grading ([17]; Day 1): 1
- Corneal opacity, grading ([17]; Day 1): 1
- Abnormality iris, grading ([17]; Day 3): 0
- Chemosis, grading ([17]; Day 3): 1.5
- Conjunctivae redness, grading ([17]; Day 3): 1
- Corneal opacity, grading ([17]; Day 3): 1
- Abnormality iris, grading ([17]; Day 5): 0
- Chemosis, grading ([17]; Day 5): 2
- Conjunctivae redness, grading ([17]; Day 5): 1
- Corneal opacity, grading ([17]; Day 5): 1
- Abnormality iris, grading ([17]; Day 7): 0
- Chemosis, grading ([17]; Day 7): 2
- Conjunctivae redness, grading ([17]; Day 7): 1
- Corneal opacity, grading ([17]; Day 7): 1
- Abnormality iris, grading ([17]; Recovery, Day 14): 0
- Chemosis, grading ([17]; Recovery, Day 14): 1.5
- Conjunctivae redness, grading ([17]; Recovery, Day 14): 0.5
- Corneal opacity, grading ([17]; Recovery, Day 14): 0.5
- Corneal opacity, Grade ([13]; rabbit eye, 7 days): 2
- Redness of conjunctivae, Grade ([13]; rabbit eye, 7 days): 1
- Reversibility ([13]; rabbit eye): No
- Iris lesion, Grade ([13]; rabbit, in vivo): 0

Compound: Cc1ncc([N+](=O)[O-])n1CCO [metronidazole]
- course of cell count ([2]; 24 h): initial decrease in cell count, but gradually lost activity
- drug resistance index (MICp/MICs) [3]: gradually increased from passage 3 to the last passage

Compound: FDWDSVLKGVEGFVRGYF [TP1]
- MIC [7]: >12 µg/mL
- MIC [8]: >12 µg/mL
- MIC [9]: >12 µg/mL

Compound: FIHHIIGGLFSVGKHIHSLIHGH [TP3]
- MIC [5]: 8 to 12 µg/mL
- MIC [7]: 8 to 12 µg/mL
- MIC [8]: 8 to 12 µg/mL
- MIC [9]: 8 to 12 µg/mL

Compound: QLQGKQVSGEVVQKVLQELIQSVAKP [TP5]
- MIC [5]: >12 µg/mL
- MIC [7]: >12 µg/mL
- MIC [8]: >12 µg/mL
- MIC [9]: >12 µg/mL
